The text below walks through data of ChEMBL document CHEMBL1129670, “Synthesis and structure-activity relationships of N-propyl-N-(4-pyridinyl)-1H-indol-1-amine (besipirdine) and related analogs as potential therapeutic agents for Alzheimer's disease” (J Med Chem, 1996).

Usually IC50 stands for the concentration at which inhibition is half-maximal.

In assay [1] the test system is Mus musculus. In words: Antagonistic activity against Scopolamine induced behavioral deficits in mice at dose 0.04 mg/kg sc. As to conditions: route subcutaneous. Type of assay: functional.
The species entered for assay [2] is Mus musculus. The assay is described as follows: Antagonistic activity against Scopolamine induced behavioral deficits in mice; 3/9. Type of assay: functional.
Assay [3] deals with T1, Adrenergic receptor alpha-2 (Rattus norvegicus, UniProt P22086+P19328+P22909).
T1 sequence (P22086 whole entry): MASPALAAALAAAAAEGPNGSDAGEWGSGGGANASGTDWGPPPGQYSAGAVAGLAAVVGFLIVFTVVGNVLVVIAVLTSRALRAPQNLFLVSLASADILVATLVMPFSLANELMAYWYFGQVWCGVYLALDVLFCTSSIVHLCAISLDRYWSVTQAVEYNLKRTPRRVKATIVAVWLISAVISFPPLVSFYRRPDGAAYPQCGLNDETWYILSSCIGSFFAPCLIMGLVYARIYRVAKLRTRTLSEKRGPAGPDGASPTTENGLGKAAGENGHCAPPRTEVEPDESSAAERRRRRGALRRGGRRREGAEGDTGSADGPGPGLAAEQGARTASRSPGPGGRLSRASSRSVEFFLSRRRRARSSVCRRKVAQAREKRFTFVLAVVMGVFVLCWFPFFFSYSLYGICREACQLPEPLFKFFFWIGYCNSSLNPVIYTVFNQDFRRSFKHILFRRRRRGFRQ
T1 sequence (P19328 whole entry): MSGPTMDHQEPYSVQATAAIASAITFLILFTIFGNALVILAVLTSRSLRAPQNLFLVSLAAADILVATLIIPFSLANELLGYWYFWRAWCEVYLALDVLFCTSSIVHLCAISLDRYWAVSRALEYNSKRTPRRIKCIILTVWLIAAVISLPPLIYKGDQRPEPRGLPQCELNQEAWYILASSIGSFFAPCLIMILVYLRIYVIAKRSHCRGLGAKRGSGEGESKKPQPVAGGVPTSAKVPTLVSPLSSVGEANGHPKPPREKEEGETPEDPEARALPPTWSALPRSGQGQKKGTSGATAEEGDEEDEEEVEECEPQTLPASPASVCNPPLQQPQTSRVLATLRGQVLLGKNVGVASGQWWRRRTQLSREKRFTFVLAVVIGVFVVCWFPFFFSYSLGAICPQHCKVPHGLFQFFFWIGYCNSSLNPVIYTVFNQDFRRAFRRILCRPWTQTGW
T1 sequence (P22909 whole entry): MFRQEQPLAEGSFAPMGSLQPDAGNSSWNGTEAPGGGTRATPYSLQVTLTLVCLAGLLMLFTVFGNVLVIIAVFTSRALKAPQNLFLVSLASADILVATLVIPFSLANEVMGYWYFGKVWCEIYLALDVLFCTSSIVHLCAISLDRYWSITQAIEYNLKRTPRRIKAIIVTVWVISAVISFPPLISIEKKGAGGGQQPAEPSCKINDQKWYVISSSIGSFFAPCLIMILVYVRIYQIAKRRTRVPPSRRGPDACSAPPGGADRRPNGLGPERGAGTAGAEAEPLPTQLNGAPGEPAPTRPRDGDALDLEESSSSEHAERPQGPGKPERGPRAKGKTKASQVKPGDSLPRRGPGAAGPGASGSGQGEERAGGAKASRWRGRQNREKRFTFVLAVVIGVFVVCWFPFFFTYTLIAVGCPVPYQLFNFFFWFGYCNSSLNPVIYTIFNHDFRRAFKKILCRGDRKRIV
The assay is described as follows: Inhibitory activity against [3H]clonidine binding to Alpha-2 adrenergic receptor in rat cortex.

Assay [4] relates to Mus musculus. The assay is described as follows: Antagonistic activity against Scopolamine induced behavioral deficits in mice at dose 0.16 mg/kg sc. Type of assay: functional. To be noted: route subcutaneous.
In assay [5] the target is Kappa-type opioid receptor (Cavia porcellus, UniProt P41144). In words: Inhibitory activity against [3H]bremazocine binding to kappa opioid receptor in guinea pig cerebellum. The assay is classed as tissue-based.
Sequence of Kappa-type opioid receptor (P41144 whole entry): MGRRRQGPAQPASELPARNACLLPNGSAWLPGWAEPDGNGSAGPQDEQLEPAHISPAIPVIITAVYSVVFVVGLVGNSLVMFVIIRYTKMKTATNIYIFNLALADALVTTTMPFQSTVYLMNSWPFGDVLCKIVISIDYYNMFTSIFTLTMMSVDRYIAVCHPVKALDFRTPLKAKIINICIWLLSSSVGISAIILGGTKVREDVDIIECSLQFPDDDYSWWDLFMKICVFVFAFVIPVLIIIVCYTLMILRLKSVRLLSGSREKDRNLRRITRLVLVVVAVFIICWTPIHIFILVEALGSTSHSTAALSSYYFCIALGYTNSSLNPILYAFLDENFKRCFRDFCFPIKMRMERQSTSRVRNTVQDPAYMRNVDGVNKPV
The target in assay [6] is 5-hydroxytryptamine receptor 1B (Rattus norvegicus, UniProt P28564). In words: Inhibitory activity against [3H]5-HT binding to 5-HT1B receptor in rat striatum. The assay is classed as tissue-based.
Sequence of 5-hydroxytryptamine receptor 1B (P28564 whole entry): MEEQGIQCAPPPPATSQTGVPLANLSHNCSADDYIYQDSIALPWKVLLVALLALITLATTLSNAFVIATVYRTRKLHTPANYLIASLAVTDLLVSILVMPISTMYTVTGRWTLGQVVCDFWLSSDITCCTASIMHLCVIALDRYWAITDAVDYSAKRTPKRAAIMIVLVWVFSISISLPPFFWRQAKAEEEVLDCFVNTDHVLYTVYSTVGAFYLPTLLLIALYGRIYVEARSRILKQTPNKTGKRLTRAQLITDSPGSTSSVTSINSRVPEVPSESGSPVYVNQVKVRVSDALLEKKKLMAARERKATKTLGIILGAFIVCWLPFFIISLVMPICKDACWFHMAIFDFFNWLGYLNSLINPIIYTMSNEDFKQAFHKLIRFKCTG
Assay [7] is filed under the species Mus musculus. To be noted: dose 0.63 mg/kg; route subcutaneous.
Description: Antagonistic activity against Scopolamine induced behavioral deficits in mice at dose 0.63 mg/kg sc
Assay [8] is filed under the species Rattus norvegicus. In words: Inhibitory activity against [3H]5-HT uptake in rat whole brain. The assay is classed as functional.
Assay [9] addresses Serotonin 2 (5-HT2) receptor (Rattus norvegicus, UniProt P30994+P08909+P14842). The assay is described as follows: Inhibitory activity against [3H]spiroperidol binding to 5-HT2 receptor in rat cortex.
The target of assay [10] is Voltage-dependent L-type calcium channel subunit alpha-1C (Rattus norvegicus, UniProt P22002). In words: Inhibition of [3H]nitrendipine binding to [Ca2+] channel of rat heart.
Sequence of Voltage-dependent L-type calcium channel subunit alpha-1C (P22002 whole entry): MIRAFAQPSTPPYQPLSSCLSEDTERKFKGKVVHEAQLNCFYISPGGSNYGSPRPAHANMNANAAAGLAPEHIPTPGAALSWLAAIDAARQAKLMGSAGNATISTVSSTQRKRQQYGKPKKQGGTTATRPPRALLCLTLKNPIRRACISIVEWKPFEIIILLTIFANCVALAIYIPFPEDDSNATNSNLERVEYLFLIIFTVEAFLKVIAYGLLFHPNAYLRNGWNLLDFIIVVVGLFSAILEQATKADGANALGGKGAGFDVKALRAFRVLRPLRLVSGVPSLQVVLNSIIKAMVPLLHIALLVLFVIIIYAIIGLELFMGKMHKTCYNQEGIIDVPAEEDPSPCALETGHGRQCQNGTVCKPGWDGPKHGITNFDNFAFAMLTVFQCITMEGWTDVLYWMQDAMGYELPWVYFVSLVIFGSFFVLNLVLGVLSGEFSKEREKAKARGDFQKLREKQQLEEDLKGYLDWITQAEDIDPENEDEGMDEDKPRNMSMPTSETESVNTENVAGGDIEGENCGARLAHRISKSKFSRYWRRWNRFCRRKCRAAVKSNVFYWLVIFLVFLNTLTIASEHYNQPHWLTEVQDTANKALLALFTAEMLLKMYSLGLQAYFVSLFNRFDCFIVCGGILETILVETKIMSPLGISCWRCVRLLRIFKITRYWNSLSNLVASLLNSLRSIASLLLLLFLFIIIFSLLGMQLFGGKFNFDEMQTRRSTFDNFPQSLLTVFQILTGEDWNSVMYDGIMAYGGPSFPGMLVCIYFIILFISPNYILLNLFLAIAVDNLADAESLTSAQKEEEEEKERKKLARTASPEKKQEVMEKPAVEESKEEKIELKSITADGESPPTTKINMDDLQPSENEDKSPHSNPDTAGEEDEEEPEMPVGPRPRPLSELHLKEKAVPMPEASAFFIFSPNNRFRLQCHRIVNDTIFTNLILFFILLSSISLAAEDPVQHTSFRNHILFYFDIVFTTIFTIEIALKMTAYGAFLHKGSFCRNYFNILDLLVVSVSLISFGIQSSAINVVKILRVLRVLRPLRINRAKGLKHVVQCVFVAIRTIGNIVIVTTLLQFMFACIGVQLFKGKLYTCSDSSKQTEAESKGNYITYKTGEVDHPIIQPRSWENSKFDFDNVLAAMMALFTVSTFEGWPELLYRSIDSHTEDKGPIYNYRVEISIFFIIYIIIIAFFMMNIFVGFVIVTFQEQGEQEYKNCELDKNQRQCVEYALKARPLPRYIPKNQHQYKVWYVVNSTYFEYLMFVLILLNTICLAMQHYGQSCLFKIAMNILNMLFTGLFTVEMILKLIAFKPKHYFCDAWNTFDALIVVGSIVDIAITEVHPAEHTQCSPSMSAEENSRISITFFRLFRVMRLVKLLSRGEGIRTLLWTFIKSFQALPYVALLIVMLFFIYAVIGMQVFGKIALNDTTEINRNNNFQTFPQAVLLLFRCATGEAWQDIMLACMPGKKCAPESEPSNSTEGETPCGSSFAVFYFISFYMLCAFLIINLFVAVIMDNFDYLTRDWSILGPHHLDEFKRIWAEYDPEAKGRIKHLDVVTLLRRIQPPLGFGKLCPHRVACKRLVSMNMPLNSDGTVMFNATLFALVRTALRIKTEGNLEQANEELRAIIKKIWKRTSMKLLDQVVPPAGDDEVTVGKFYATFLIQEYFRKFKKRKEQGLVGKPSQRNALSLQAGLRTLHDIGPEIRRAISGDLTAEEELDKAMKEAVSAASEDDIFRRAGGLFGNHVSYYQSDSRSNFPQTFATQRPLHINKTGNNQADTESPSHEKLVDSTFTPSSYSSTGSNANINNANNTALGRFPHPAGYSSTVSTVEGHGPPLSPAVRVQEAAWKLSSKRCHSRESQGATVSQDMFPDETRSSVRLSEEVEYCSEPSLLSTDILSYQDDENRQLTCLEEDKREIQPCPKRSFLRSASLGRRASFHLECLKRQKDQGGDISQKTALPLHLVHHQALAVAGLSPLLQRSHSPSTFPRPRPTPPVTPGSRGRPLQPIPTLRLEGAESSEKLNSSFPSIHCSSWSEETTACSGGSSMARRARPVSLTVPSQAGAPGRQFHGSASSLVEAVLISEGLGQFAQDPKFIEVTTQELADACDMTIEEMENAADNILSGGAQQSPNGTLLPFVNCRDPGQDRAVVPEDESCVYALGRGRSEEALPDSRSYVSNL
For assay [11], the target named is Glutamate NMDA receptor. In words: Inhibitory activity against [3H]-CPP binding to NMDA receptor in rat cortex.
The species named for assay [12] is Rattus norvegicus. In words: Inhibitory activity against [3H]dopamine uptake in rat striatum. The assay is classed as functional.
For assay [13], the species on record is Rattus norvegicus. In words: Inhibitory activity against [3H]norepinephrine (NE) uptake in rat whole brain. The assay is classed as functional.
Assay [14] has as its target T2, Muscarinic acetylcholine receptor M2 (Rattus norvegicus, UniProt P10980).
T2 sequence (P10980 whole entry): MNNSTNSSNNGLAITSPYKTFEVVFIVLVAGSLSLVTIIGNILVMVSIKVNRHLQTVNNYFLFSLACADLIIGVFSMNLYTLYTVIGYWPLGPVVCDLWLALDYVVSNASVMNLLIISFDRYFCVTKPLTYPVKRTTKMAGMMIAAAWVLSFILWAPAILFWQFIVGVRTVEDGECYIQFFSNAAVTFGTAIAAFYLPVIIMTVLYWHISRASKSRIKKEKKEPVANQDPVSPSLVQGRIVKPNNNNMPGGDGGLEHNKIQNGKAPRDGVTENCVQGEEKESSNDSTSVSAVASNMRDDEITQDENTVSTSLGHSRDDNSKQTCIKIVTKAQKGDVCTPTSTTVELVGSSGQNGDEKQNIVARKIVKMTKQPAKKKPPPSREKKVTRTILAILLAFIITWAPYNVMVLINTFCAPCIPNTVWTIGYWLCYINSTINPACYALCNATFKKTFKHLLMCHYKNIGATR
The assay is described as follows: Inhibitory activity against [3H]N-methyl-scopolamine in rat Muscarinic acetylcholine receptor M2 cerebellum in the presence GPP(NH)P. Type of assay: tissue-based.

The species entered for assay [15] is Mus musculus. The assay is described as follows: Antagonistic activity against Scopolamine induced behavioral deficits in mice; 5/6. The assay is classed as functional.

`CN(c1ccncc1)n1ccc2ccccc21` registered a Response in [1] of 53%. Also, in assay [2], the Antagonism worked out at 3. In assay [3], this compound registered a half-maximal inhibitory concentration (IC50) of 0.024 µM.

`c1ccc2c(c1)ccn2Nc1ccncc1` had a Response in [4] of 23%. In [2], this compound returned an Antagonism of 3. For the same compound, in [3], the IC50 was determined as 0.008 µM.

`CCCN(c1ccncc1)n1ccc2ccccc21` [BESIPIRDINE]: the IC50 is over 10 µM in assay [5]; over 20 µM in assay [6]; 2.6 µM in assay [8]; over 20 µM in assay [9]; over 100 µM in [10]; 0.33 µM in assay [3]. For the same compound, the 50% inhibitory concentration (IC50) in assay [11] was over 20 µM; in [12], 0.41 µM; in [13], 0.43 µM; in [14] it was 0.65 µM. Besides, the Response was determined as 30% in [1], 40% in [7] and 27% in [4]. The compound also had an Antagonism in assay [15] of 5.
